Data published in PubChem BioAssay (NCI).
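Tested at 5 concentrations; 48 h exposure; 96-well plates; endpoints linearly interpolated, else capped at highest concentration. The concentration for full growth arrest is given as TGI.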

Experiments:
Assay in all cases: NCI tumour cell line growth inhibition, 48 h
A498 renal = test system: A498 renal
A549 NSCLC = test system: A549 NSCLC
CCRF-CEM leukemia = test system: CCRF-CEM leukemia
COLO 205 colon = test system: COLO 205 colon
DLD-1 colon = test system: DLD-1 colon
DMS 114 small cell lung = test system: DMS 114 small cell lung
DMS 273 small cell lung = test system: DMS 273 small cell lung
EKVX NSCLC = test system: EKVX NSCLC
HCC-2998 colon = test system: HCC-2998 colon
HCT-116 colon = test system: HCT-116 colon
HCT-15 colon = test system: HCT-15 colon
HL-60(TB) leukemia = test system: HL-60(TB) leukemia
HOP-18 NSCLC = test system: HOP-18 NSCLC
HOP-62 NSCLC = test system: HOP-62 NSCLC
HOP-92 NSCLC = test system: HOP-92 NSCLC
HT29 colon = test system: HT29 colon
IGROV1 ovarian = test system: IGROV1 ovarian
K-562 leukemia = test system: K-562 leukemia
KM12 colon = test system: KM12 colon
LOX IMVI melanoma = test system: LOX IMVI melanoma
M19-MEL melanoma = test system: M19-MEL melanoma
MALME-3M melanoma = test system: MALME-3M melanoma
MCF7 breast = test system: MCF7 breast
MOLT-4 leukemia = test system: MOLT-4 leukemia
NCI-H226 lung = test system: NCI-H226 lung
NCI-H23 lung = test system: NCI-H23 lung
NCI-H460 lung = test system: NCI-H460 lung
NCI-H522 lung = test system: NCI-H522 lung
NCI/ADR-RES ovarian = test system: NCI/ADR-RES ovarian
OVCAR-3 ovarian = test system: OVCAR-3 ovarian
OVCAR-4 ovarian = test system: OVCAR-4 ovarian
OVCAR-5 ovarian = test system: OVCAR-5 ovarian
OVCAR-8 ovarian = test system: OVCAR-8 ovarian
P388 leukemia = test system: P388 leukemia
P388/ADR leukemia = test system: P388/ADR leukemia
RXF 393 renal = test system: RXF 393 renal
SF-268 CNS = test system: SF-268 CNS
SF-295 CNS = test system: SF-295 CNS
SF-539 CNS = test system: SF-539 CNS
SK-MEL-2 melanoma = test system: SK-MEL-2 melanoma
SK-MEL-28 melanoma = test system: SK-MEL-28 melanoma
SK-MEL-5 melanoma = test system: SK-MEL-5 melanoma
SK-OV-3 ovarian = test system: SK-OV-3 ovarian
SN12C renal = test system: SN12C renal
SN12K1 renal = test system: SN12K1 renal
SNB-75 CNS = test system: SNB-75 CNS
SNB-78 CNS = test system: SNB-78 CNS
SW-620 colon = test system: SW-620 colon
U251 CNS = test system: U251 CNS
UACC-257 melanoma = test system: UACC-257 melanoma
UACC-62 melanoma = test system: UACC-62 melanoma
UO-31 renal = test system: UO-31 renal
XF 498 CNS = test system: XF 498 CNS
786-0 renal = test system: 786-0 renal
ACHN renal = test system: ACHN renal
CAKI-1 renal = test system: CAKI-1 renal
DU-145 prostate = test system: DU-145 prostate
HS 578T breast = test system: HS 578T breast
KM20L2 colon = test system: KM20L2 colon
LXFL 529 NSCLC = test system: LXFL 529 NSCLC
M14 melanoma = test system: M14 melanoma
MDA-MB-231 breast = test system: MDA-MB-231 breast
MDA-MB-435 = test system: MDA-MB-435
MDA-N = test system: MDA-N
PC-3 prostate = test system: PC-3 prostate
RPMI-8226 leukemia = test system: RPMI-8226 leukemia
RXF-631 renal = test system: RXF-631 renal
SNB-19 CNS = test system: SNB-19 CNS
SR leukemia = test system: SR leukemia
T-47D breast = test system: T-47D breast
TK-10 renal = test system: TK-10 renal

Measured: TGI

O=[N+]([O-])c1ccc(/C=C/c2ccc(N=Nc3ccc(/C=C/c4ccc([N+](=O)[O-])cc4S(=O)(=O)O)c(S(=O)(=O)O)c3)cc2S(=O)(=O)O)c(S(=O)(=O)O)c1
> 94.3 µM: HOP-92 NSCLC
not listed: 786-0 renal | ACHN renal | CAKI-1 renal | DU-145 prostate | HS 578T breast | KM20L2 colon | LXFL 529 NSCLC | M14 melanoma | MDA-MB-231 breast | MDA-MB-435 | MDA-N | PC-3 prostate | RPMI-8226 leukemia | RXF-631 renal | SNB-19 CNS | SR leukemia | T-47D breast | TK-10 renal
> 100 µM: all other assays above

CCc1cccc(CC)c1NC(=S)NC(=O)c1ccc(Br)cc1
53.9 µM: MOLT-4 leukemia
> 31.6 µM: CCRF-CEM leukemia
83.5 µM: MDA-MB-435
> 50.4 µM: OVCAR-4 ovarian
> 96.6 µM: SNB-75 CNS
> 71.6 µM: SK-MEL-5 melanoma
> 78 µM: RXF 393 renal
> 77.1 µM: MALME-3M melanoma
> 56.2 µM: LOX IMVI melanoma
> 81.2 µM: M14 melanoma
26.3 µM: HL-60(TB) leukemia
> 78.4 µM: HCT-15 colon
> 53.3 µM: COLO 205 colon
> 95.5 µM: NCI-H226 lung
51.3 µM: NCI-H522 lung
> 64.1 µM: TK-10 renal
> 81.4 µM: SN12C renal
71.7 µM: MCF7 breast
66.3 µM: SR leukemia
48.9 µM: SK-MEL-2 melanoma
41.6 µM: NCI-H460 lung
64.6 µM: HOP-92 NSCLC
> 96 µM: CAKI-1 renal
not listed: P388 leukemia | P388/ADR leukemia | SN12K1 renal
> 100 µM: all other assays above

CC(=O)NNc1nc(C)c(C(/C=C/c2ccc(Cl)cc2)=N\NS(=O)(=O)c2ccc(C)cc2)s1
not listed: DMS 114 small cell lung | MCF7 breast | NCI/ADR-RES ovarian | P388 leukemia | P388/ADR leukemia | SN12K1 renal | DU-145 prostate | HS 578T breast | MDA-MB-231 breast | MDA-MB-435 | MDA-N | PC-3 prostate | SR leukemia | T-47D breast
> 100 µM: all other assays above
